From patent US20230070861A1, “COMPOSITIONS AND METHODS FOR TREATING HEPATITIS B” (priority 2019, published 2023) come the findings set out here.

The experiment concerns HBV. As to the kind of experiment: HBV markers in HBV-infected primary human hepatocyte (PHH) co-culture. Type of experiment: cell-based. As to the method:
A system comprising HBV-infected primary human hepatocytes (PHHs) was established by persistent HBV infection for over 30 days in a self-assembling, primary hepatocyte co-culture system (FIG. 12A). To generate the co-cultures system, primary human hepatocytes (PHH) (BioIVT) were plated at 350 k cells per well in a Collagen-Type I coated 24-well plate (Corning, 354408), and incubated at 37° C., 5% C02 to generate an adherent cell monolayer. 4 hrs post plating, plated hepatocytes were washed with CP medium (BioIVT) to remove any unadhered cells. 3T3-J2 murine embryonic fibroblasts (Kerafast (distributed from Howard Green (Harvard), Boston) were seeded at a ratio of 95% hepatocyte:5% fibroblast per well and cultured at 37° C., 5% C02 for an additional 12 hours to form co-cultures. Culture medium was replaced every 2 days (500 μL per well) for continued maintenance. Shown in FIG. 12C are images of transduced primary hepatocytes from two human hepatocyte donors, isolated from two different human livers. They were isolated, cryopreserved, and distributed for sale for research purposes by BioIVT (Maryland, US).
On the second day, post hepatocyte co-culture formation, lentivirus was added at an MOI 500 dropwise into culture medium per well. Co-cultures were transduced for 16 hours, prior to changing media for fresh CP medium (BioIVT). Culture medium was replaced every 2 days (500 μL per well) for continued maintenance. Protein expression occurs over 7 days period in hepatic co-cultures. At day 7 post transduction, co-cultures were transfected using lipofection based reagents co-formulated with gRNA and base-editor mRNA. Cells were lysed and harvested for gDNA 48 hours post transfection. FIG. 12B provides a timeline of the in vitro transduction schedule in either hepatocyte monolayers or hepatocyte co-cultures showing representative time points. Importantly, PHH cultures not treated with polyethylene glycol (PEG) during infection tend to have very low percentages of HBV infected PHH cells.
The infected cells, as gauged by HBV markers, respond to treatment as expected. […] The amounts of extracellular HBV DNA detected in the treated PHH cultures were similar to the amount observed in negative control cell cultures.
The experiments employed the approach using the HBV-infected PHH culture system and transfection of the PHH with components (base editors) of the base editor system as depicted in FIG. 19. Primary hepatocytes (PHH) co-cultures were infected with HBV in order to test antiviral efficacy of the base editors. The base editing reagents or components (base editor mRNA and synthetic gRNA) were transfected via lipofection twice over the course of two weeks. The first transfection was performed 3 days after infection to allow for complete formation of viral covalently closed circular DNA (cccDNA) at the time of the transfection. Extracellular parameters (HBsAg, HBeAg, and HBV DNA) were monitored over the course of the experiment and intracellular parameters (HBV DNA, viral RNA, and editing) were monitored at the end of the experiment. Briefly, on Day 0, PHH were infected with HBV (MOI=500). On Day 3 after HBV infection, the cells were transfected with base editing components, e.g., a BE and gRNA, or control(s). On Day 10, PHHs were subjected to another round of transfection. At the termination of the experiment, e.g., Day 17 or longer, e.g., Day 25, the PHH were lysed and extracellular amounts of HBsAg, HBeAg and HBV DNA were assessed. Also assessed were intracellular amounts of HBV DNA, viral RNA and the efficacy of base editing by the components of the base editor system versus control(s). Transfection details: RNA format, 800 ng total RNA per well in a 24 well plate (600 ng base editor+200 ng gRNA) transfected via lipofection (lipofectamin messengerMax, Thermofisher Scientific) according to the vendor's protocol. […]

Setting [1] is: 14-day PHH co-culture experiment, FIG. 20.

In the case of `C[C@H](Cn1cnc2c(N)ncnc21)OCP(=O)(O)O` [tenofovir], the “extracellular HBV DNA” value (compared to untreated HBV infected control cells, by day 7 post infection, FIG. 13B) is “significantly reduced”. Where the note is “relative to negative controls, FIG. 13C”, the “HBV surface antigen (HBsAg)” value is recorded as “lower levels”. For the same compound, the “intracellular HBV DNA” value (relative to negative controls, FIG. 13D) is on record as “lower levels”. The “total HBV RNA” value (relative to negative controls, FIG. 13E) is listed as “lower levels”. Moreover, the “pre-genomic RNA (pgRNA)” value (relative to negative controls, FIG. 13F) is given as “lower levels”.
Consider `C=C1[C@H](CO)[C@@H](O)C[C@@H]1n1cnc2c(=O)[nH]c(N)nc21` [entecavir], for which, under setting [1], the “HBV DNA” value is “reduces”, the HBsAg result was “does not influence” and the pgRNA entry is “does not influence”.
